Data reported in ChEMBL document CHEMBL1143799, “Synthesis and primary cytotoxicity evaluation of new imidazo[2,1-b]thiazole derivatives” (2007).

Legend:
Assay type in all cases: functional
[1] = system: ACHN; test: Growth inhibition of human ACHN cells after 48 hrs by SRB protein assay
[2] = system: DU-145; test: Growth inhibition of human DU145 cells after 48 hrs by SRB protein assay; settings: DU-145, 48 h
[3] = system: SNB-75; test: Growth inhibition of human SNB75 cells after 48 hrs by SRB protein assay; settings: SNB-75, 48 h
[4] = system: CAKI-1; test: Growth inhibition of human CAKI1 cells after 48 hrs by SRB protein assay; settings: CAKI-1, 48 h
[5] = system: LOX IMVI; test: Growth inhibition of human LOX IMVI cells after 48 hrs by SRB protein assay
[6] = system: NCI-H460; test: Growth inhibition of human NCI-H460 cells after 48 hrs by SRB protein assay; settings: NCI-H460, 48 h
[7] = system: EKVX; test: Growth inhibition of human EKVX cells after 48 hrs by SRB protein assay
[8] = system: Hs-578T; test: Growth inhibition of human HS578T cells after 48 hrs by SRB protein assay
[9] = system: SNB-19; test: Growth inhibition of human SNB19 cells after 48 hrs by SRB protein assay; settings: SNB-19, 48 h
[10] = system: MDA-MB-231; test: Growth inhibition of MDA-MB-231 cells after 48 hrs by SRB protein assay; settings: Homo sapiens, MDA-MB-231, 48 h
[11] = system: PC-3; test: Growth inhibition of human PC3 cells after 48 hrs by SRB protein assay; settings: PC-3, 48 h
[12] = system: SK-MEL-28; test: Growth inhibition of human SK-MEL-28 cells after 48 hrs by SRB protein assay; settings: SK-MEL-28, 48 h
[13] = system: UACC-257; test: Growth inhibition of human UACC257 cells after 48 hrs by SRB protein assay; settings: UACC-257, 48 h
[14] = system: COLO 205; test: Growth inhibition of human COLO205 cells after 48 hrs by SRB protein assay; settings: COLO 205, 48 h
[15] = system: SF-539; test: Growth inhibition of human SF539 cells after 48 hrs by SRB protein assay; settings: SF-539, 48 h
[16] = system: HCC 2998; test: Growth inhibition of human HCC2998 cells after 48 hrs by SRB protein assay; settings: HCC 2998, 48 h
[17] = system: SW-620; test: Growth inhibition of human SW620 cells after 48 hrs by SRB protein assay; settings: SW-620, 48 h
[18] = system: NCI-H522; test: Growth inhibition of human NCI-H522 cells after 48 hrs by SRB protein assay; settings: NCI-H522, 48 h
[19] = Growth inhibition of human 786O cells after 48 hrs by SRB protein assay; settings: 786-0, 48 h
[20] = system: OVCAR-8; test: Growth inhibition of human OVCAR8 cells after 48 hrs by SRB protein assay; settings: OVCAR-8, 48 h
[21] = system: RPMI-8226; test: Growth inhibition of human RPMI8226 cells after 48 hrs by SRB protein assay; settings: RPMI-8226, 48 h
[22] = system: SK-OV-3; test: Growth inhibition of human SK-OV-3 cells after 48 hrs by SRB protein assay; settings: SK-OV-3, 48 h
[23] = system: NCI-H23; test: Growth inhibition of human NCI-H23 cells after 48 hrs by SRB protein assay; settings: NCI-H23, 48 h
[24] = system: MOLT-4; test: Growth inhibition of human MOLT4 cells after 48 hrs by SRB protein assay; settings: MOLT-4, 48 h
[25] = system: UACC-62; test: Growth inhibition of human UACC62 cells after 48 hrs by SRB protein assay; settings: UACC-62, 48 h
[26] = system: MCF7; test: Growth inhibition of human MCF7 cells after 48 hrs by SRB protein assay; settings: MCF7, 48 h
[27] = system: A549; test: Growth inhibition of human A549 cells after 48 hrs by SRB protein assay; settings: A549, 48 h
[28] = system: SF-295; test: Growth inhibition of human SF295 cells after 48 hrs by SRB protein assay; settings: SF-295, 48 h
[29] = system: SK-MEL-5; test: Growth inhibition of human SK-MEL-5 cells after 48 hrs by SRB protein assay; settings: SK-MEL-5, 48 h
[30] = system: RXF 393; test: Growth inhibition of human RXF393 cells after 48 hrs by SRB protein assay; settings: RXF 393, 48 h, read-out: Log TGI (converted)
[31] = system: HOP-92; test: Growth inhibition of human HOP92 cells after 48 hrs by SRB protein assay; settings: HOP-92, 48 h
[32] = system: NCI-H322M; test: Growth inhibition of human NCI-H322M cells after 48 hrs by SRB protein assay
[33] = system: MDA-MB-435; test: Growth inhibition of human MDA-MB-435 cells after 48 hrs by SRB protein assay; settings: MDA-MB-435, 48 h
[34] = system: HOP-62; test: Growth inhibition of human HOP62 cells after 48 hrs by SRB protein assay; settings: HOP-62, 48 h
[35] = system: KM12; test: Growth inhibition of human KM12 cells after 48 hrs by SRB protein assay; settings: KM12, 48 h
[36] = system: OVCAR-3; test: Growth inhibition of human OVCAR-3 cells after 48 hrs by SRB protein assay; settings: OVCAR-3, 48 h
[37] = system: SK-MEL-2; test: Growth inhibition of human SK-MEL-2 cells after 48 hrs by SRB protein assay; settings: SK-MEL-2, 48 h
[38] = system: HCT-15; test: Growth inhibition of human HCT15 cells after 48 hrs by SRB protein assay; settings: HCT-15, 48 h
[39] = system: SF-268; test: Growth inhibition of human SF268 cells after 48 hrs by SRB protein assay; settings: SF-268, 48 h

What does the source list for O=C(Cc1csc2nc(-c3ccc(Br)cc3)cn12)N/N=C/c1ccc(O)cc1?
GI50 [1]: 14.8 µM; TGI ([1]; read-out: Log TGI (converted)): 51.3 µM; GI50 [2]: 22.4 µM; TGI ([2]; read-out: Log TGI (converted)): 87.1 µM; GI50 [3]: > 100 µM; TGI ([3]; read-out: Log TGI (converted)): > 100 µM; GI50 [4]: 14.8 µM; TGI ([4]; read-out: Log TGI (converted)): 49 µM; GI50 [5]: 11.2 µM; TGI ([5]; read-out: Log TGI (converted)): 26.3 µM; GI50 [6]: 57.5 µM; TGI ([6]; read-out: Log TGI (converted)): > 100 µM; GI50 [7]: 11.5 µM; TGI ([7]; read-out: Log TGI (converted)): 66.1 µM; GI50 [8]: 23.4 µM; TGI ([8]; read-out: Log TGI (converted)): 93.3 µM; GI50 [9]: 57.5 µM; TGI ([9]; read-out: Log TGI (converted)): > 100 µM; GI50 [10]: 10.5 µM; TGI ([10]; read-out: Log TGI (converted)): 43.7 µM; GI50 [11]: < 0.01 µM; TGI ([11]; read-out: Log TGI (converted)): 23.4 µM; GI50 [12]: 60.3 µM; TGI ([12]; read-out: Log TGI (converted)): 100 µM; GI50 [13]: 1.51 µM; TGI ([13]; read-out: Log TGI (converted)): 7.76 µM; GI50 [14]: 43.7 µM; TGI ([14]; read-out: Log TGI (converted)): > 100 µM; GI50 [15]: 18.2 µM; TGI ([15]; read-out: Log TGI (converted)): 46.8 µM; GI50 [16]: 14.5 µM; TGI ([16]; read-out: Log TGI (converted)): 29.5 µM; GI50 [17]: 31.6 µM; TGI ([17]; read-out: Log TGI (converted)): > 100 µM; GI50 [18]: 10.7 µM; TGI ([18]; read-out: Log TGI (converted)): 34.7 µM; GI50 [19]: 26.3 µM; TGI ([19]; read-out: Log TGI (converted)): 89.1 µM; GI50 [20]: 7.08 µM; TGI ([20]; read-out: Log TGI (converted)): 25.7 µM; GI50 [21]: 4.27 µM; TGI ([21]; read-out: Log TGI (converted)): 39.8 µM; GI50 [22]: 52.5 µM; TGI ([22]; read-out: Log TGI (converted)): > 100 µM; GI50 [23]: 7.59 µM; TGI ([23]; read-out: Log TGI (converted)): 32.4 µM; GI50 [24]: 4.17 µM; TGI ([24]; read-out: Log TGI (converted)): 10 µM; GI50 [25]: 9.12 µM; TGI ([25]; read-out: Log TGI (converted)): 23.4 µM; GI50 [26]: 63.1 µM; TGI ([26]; read-out: Log TGI (converted)): > 100 µM; GI50 [27]: 10.7 µM; TGI ([27]; read-out: Log TGI (converted)): 33.9 µM; GI50 [28]: 12 µM; TGI ([28]; read-out: Log TGI (converted)): 41.7 µM; GI50 [29]: 7.08 µM; TGI ([29]; read-out: Log TGI (converted)): 22.4 µM; TGI [30]: 40.7 µM; GI50 [31]: 19.1 µM; TGI ([31]; read-out: Log TGI (converted)): 69.2 µM; GI50 [32]: 4.37 µM; TGI ([32]; read-out: Log TGI (converted)): 34.7 µM; GI50 [33]: 6.31 µM; TGI ([33]; read-out: Log TGI (converted)): 24.5 µM; GI50 [34]: 18.2 µM; TGI ([34]; read-out: Log TGI (converted)): 53.7 µM; GI50 [35]: 17.8 µM; TGI ([35]; read-out: Log TGI (converted)): 75.9 µM; GI50 [36]: 24 µM; TGI ([36]; read-out: Log TGI (converted)): 49 µM; GI50 [37]: 26.3 µM; TGI ([37]; read-out: Log TGI (converted)): 95.5 µM; GI50 [38]: 17.8 µM; TGI ([38]; read-out: Log TGI (converted)): 61.7 µM; GI50 [39]: > 100 µM; TGI ([39]; read-out: Log TGI (converted)): > 100 µM
